From a melting point compilation (Tetko et al.; mined from patent text by program, amines drawn as free bases though some values may be those of a salt)

melting point [°C]	Compound
225	COc1cc2c(cc1OC)C1=NCC(CBr)N1C(SC)=N2 (stereo not given)
123 to 124	CCOC(=O)CCc1cn(-c2ccccc2)nc1OCc1ccccc1
200	COC(=O)c1ncc(C)cc1C(=O)O
298	CNC(=O)c1cc(NCc2c(C)cccc2C)c2nc(C)[nH]c2c1
> 225	CC1(C)CC(N2C(=O)c3ccc(C(=O)O)cc3C2=O)CC(C)(C)N1
30	CCOCCCNC(=O)C(C)(C(C)C)C(C)C
149 to 150	CC(C)(C)OC(=O)N[C@@H]1Cc2ccccc2C[C@H]1O (relative stereo)
197	O=c1ncc(Cl)cn1Cc1ccccc1
46 to 49	CC(=O)CC(=O)c1ccccn1
160	O=C(c1ccc(CN2CCOCC2)cc1)c1cccc2nc(N[C@@H]3CCc4ccccc43)ccc12
62 to 64	CCOC(=O)c1cccc(-n2cccc2)c1
114 to 115	COc1ccc(C(=O)[C@H]2CC=CC[C@H]2C(=O)O)cc1OC1CCCC1 (relative stereo)
241 to 242	Cc1c(-c2ccc(O)cc2)oc2ccccc2c1=O
94 to 96	CCCCc1oc2ccccc2c1C(O)c1ccc(O)cc1 (stereo not given)
169 to 170	CCOCc1nc2cnc3cc(Br)ccc3c2n1CC1CCN(C(=O)OC(C)(C)C)CC1
198 to 200	CC(C)(C)OC(=O)N[C@H](Cc1ccc(C(F)(F)F)cc1)[C@@H](O)c1ccncc1 (racemic)
74 to 75	O=C(O)CCCCCCOc1cccc(-c2ccccc2)n1
191 to 194	COc1ccc2c(c1)C(=O)CC1(CCN(SCCc3cc(=O)n(C)c(=O)n3C)CC1)O2
60 to 63	O=C1C(=Cc2cccs2)CCc2cc(OCCc3c[nH]cn3)ccc21
99	Cc1ccc(C#Cc2ccc3c(c2)C(C)(C)CCC3(C)C)cc1
242 to 244	CCCCN(CCCC)c1ccc(C=Cc2cc(C)c(C=CC3=C(C#N)C(=C(C#N)C#N)OC3(C)C)cc2C)c(OC)c1
319 to 321	COc1cc(-c2ccc(C(=N)NO)cc2)cc(-c2nc3cc(C(=N)NO)ccc3[nH]2)c1O
200 to 202	O=Cc1ccc2c(c1)ncn2-c1cccc(-c2cccnc2)c1
145 to 147	O=C(O)CC(CC(=O)O)c1ccc(F)cc1

melting point [°C]	Compound
214 to 216	O=C(c1c(-c2cc(Cl)cc(Cl)c2)[nH]c2c(Cl)cc(Cl)cc12)C(F)(F)F
70 to 71	COc1ccc(C(=O)C=Cc2ccc(OCc3ccccc3)cc2)c(O)c1CC=C(C)C
236 to 238	COc1ccc2c(C)c3c(c(-c4ccc(F)cc4)c2c1)CNC3=O
111 to 114	Cc1cccc(C)c1N(CC(C)OS(C)(=O)=O)S(C)(=O)=O (stereo not given)
178 to 181	N#CNC(=N)NCCCN1CCC(c2noc3cc(F)ccc23)CC1
135 to 139	CN1CCN(CCCOc2ccc(Nc3ncc4ccc(-c5cccnc5)n4n3)cc2)CC1
198 to 199	NCCCc1c[nH]c(-c2ccc(F)cc2)c1-c1ccncc1
196 to 198	O=c1sc2ccccc2n1Cc1nc2ccccc2n1-c1ccccc1
110 to 111	COC(=O)c1cc(Cl)cc([N+](=O)[O-])c1N
186 to 188	COC(=O)[C@H]1[C@H](N2C(=O)c3ccccc3C2=O)C(=O)N1Cc1ccc(OC)cc1OC (relative stereo)
44 to 46	CC(C(=O)NCC(COC(=O)C(C)(C)C)Cc1ccc(C(C)(C)C)cc1)c1ccc(NS(C)(=O)=O)c(F)c1 (stereo not given)
183 to 185	O=C(Oc1ccc([N+](=O)[O-])cc1)Oc1ccc2oc3ccccc3c2c1
104 to 105	CC(C)(C)OC(=O)NC(CO)COc1noc2ccc(NC=O)cc12 (stereo not given)
169 to 173	CCNS(=O)(=O)c1cccc(OCc2nc3ccccc3n2C)c1
143 to 144	COc1ccc(CC(=O)O)c(OCCCc2cn(-c3ccc(C(F)(F)F)cn3)nc2C(C)C)c1
191 to 193	COc1ccc(-c2cc(=O)c3ccc(OCC(O)CN4CCN(c5ccccc5)CC4)cc3o2)cc1OC (stereo not given)
166 to 168	COC[C@H]1C[C@@H](n2cnc3c(N[C@H]4CCN(c5ccc(C(F)(F)F)cn5)C4)ncnc32)[C@@H](O)[C@H]1O
160 to 162	Cc1ccc(S(=O)(=O)N(OC(C)C)c2ccc([N+](=O)[O-])cc2Cl)cc1
70 to 72	N#C/C=C1\CCCCC1n1nc(-c2c(-c3ccccc3)nn3ccccc23)ccc1=O (stereo not given)
291	Cc1cc2c(O)n(CCc3ccc(C(=O)N[C@@H](CCC(=O)O)C(=O)O)cc3)cnc-2n1
240 to 241	CC(=O)c1cc(Nc2cc(C)nc(N)n2)cc(C(C)=O)c1
79 to 82	CC(=O)OCCSC(F)(F)C(O)(Cn1cncn1)c1ccc(F)cc1F (stereo not given)
97 to 100	C[C@H]1[C@H](NSc2ccccc2[N+](=O)[O-])C(=O)N1OCc1ccccc1
84 to 85	CN(C)CCc1cccc(OCCN2C(=O)c3ccccc3C2=O)c1

melting point [°C]	Compound
211 to 212	CCOC(=O)c1cc2c(C)ccc(O)c2[nH]1
186 to 189	O=C1Cc2cc(Sc3ccccc3)ncc2N1
192 to 194	O=C1Cc2cc(C(O)CN3CCC(O)(c4ccccc4)CC3)ccc2N1 (stereo not given)
104 to 105	CCOP(=O)(OCC)C(CC(C(=O)Nc1ccccn1)C(=O)c1ccccc1)P(=O)(OCC)OCC (stereo not given)
117 to 119	CCN(CC)CC1CCCCN1CCNC(=O)N1c2ccc(Br)cc2C(=O)Nc2cccnc21 (stereo not given)
145 to 147	COc1ccc2c(c1O)COCc1cc(OC)c(OC)c(OC)c1-2
187 to 190	CN1C(=O)C2(COc3cc4c(cc32)CCO4)c2ccccc21 (stereo not given)
127 to 128	COC(=O)Cn1c(C)cc(Cc2ccsc2)c(NC(=O)OCc2ccccc2)c1=O
210 to 211	CC(C)(C)C(=O)Nc1ccc2oc3c(c2c1)CCCC3
147 to 148	Cc1c(C#N)c(-c2ccc(C#N)cc2)c(C)n1Cc1cnc(Cl)c(CO)c1
119 to 121	CCOC(=O)c1[nH]c(C)nc1C(=S)OCC
200 to 201	O=C(Nc1cccnn1)N1CCN(c2ccnc(-c3ccc(F)cc3F)n2)CC1
218 to 222	Cc1cccc(Nc2nc(-c3ccc(-c4ccccc4)cc3)cs2)n1
219 to 221	COc1cnc(-c2cccn3nc(C4(C5CCNCC5)C=CC(N)=CC4)nc23)cn1 (stereo not given)
125 to 126	O=C(NCCc1ccccc1)c1ccccc1I
163 to 164	CSc1ccc(CC2C(C)=C(CCN(O)C(N)=O)c3ccccc32)cc1 (stereo not given)
187 to 188	OCC1(CO)C=CC(c2ccccc2)=CC1
202 to 205	CC(C)(O)Cn1c(CO)nc2c(N)nc3cc(CCCNS(C)(=O)=O)ccc3c21
91 to 93	COC(=O)C(C)c1ccc2cc(OCc3ccc4ccccc4n3)ccc2c1 (stereo not given)
68 to 70	O=[N+]([O-])c1ccc(F)c(-c2cccnc2)c1F
161 to 163	CCOc1cc(NC(C)=O)c(Cl)cc1C(=O)NCC1CN(Cc2ccc(F)cc2)CCO1 (stereo not given)
108	CCC(=O)Oc1cc(OC)cc(OC)c1C(=O)C=Cc1cccn1C
88 to 90	N#CC1CCCc2cc3c(nc21)CCCC3 (stereo not given)
191 to 192	CN(C)Cc1c(-c2ccccc2)[nH]c2nccnc12

melting point [°C]	Compound
110 to 113	Cc1nc2cc(Cl)cc(Cl)c2o1
50 to 54	CC(=O)SCCC(=O)[C@H]1CC[C@H]1C(=O)O (relative stereo)
168 to 171	Cc1nc(N2CCCC2)sc1C(=O)c1ccc(Cl)c([N+](=O)[O-])c1
226 to 228	O=C1NC(=O)C(Cc2c[nH]c3ccc(Cl)cc23)N1 (stereo not given)
208 to 209	C=CCNC(=O)Cn1c(-c2ccc(Cl)cc2)nc2cccnc21
175	CCOC(=O)C(=O)Nc1ccc2nonc2c1NC(=O)C(=O)OCC
60	Clc1ccc(C2(CBr)OCC(c3ccccc3)O2)cc1 (stereo not given)
77 to 80	CCCCCN(CC(=O)OCC)C(=O)C(CCC(=O)O)CS(=O)(=O)c1ccc2ccccc2c1 (stereo not given)
49 to 50	COC(=O)C1C(=O)CCC1CC#N (stereo not given)
242 to 244	O=c1c2ccc(Cl)cc2n(Cc2ccccc2)c(=O)n1S(=O)(=O)c1ccc(Cl)cc1
93 to 95	O=S(=O)(NCC1CCN(C[C@H]2COc3ccc(Br)cc3O2)CC1)c1cccc(Cl)c1Cl
157 to 158	COC(=O)C1C(=O)NC(C)C1c1c(Cl)cccc1Cl (stereo not given)
138	O=C(c1ccc(F)cc1)c1ccc2nc(Cl)nc(-c3cccc(Cl)c3)c2c1
175 to 177	COc1ccc(-n2nnc3c(-c4ccc(C(F)(F)F)cc4F)ncnc32)cc1
138 to 139	CCCC(=O)c1ccc(OCCC(=O)O)c(Cl)c1Cl
123	CCOC(=O)Nc1ccc2c(c1C=O)OCO2
76.6 to 79.6	CCc1nn2c(-c3ccc(OC)cc3Cl)cccc2c1N(CC)CCCF
172 to 177	C=CCn1c(NCC)nc(N2CCc3ccccc3CC2)c(C#N)c1=O
195 to 198	Cc1ccc(C[C@H](NC(=O)[C@@H](NC(=O)OCc2ccccn2)C(C)C)[C@H](O)[C@H](Cc2ccccc2)NC(=O)[C@@H](NC(=O)OCc2ccccn2)C(C)C)cc1
161 to 163	CN(C)CCN(C)c1ccc(Nc2cc(Br)cn(C)c2=O)nc1
227 to 229	Cc1cc(-c2nnc3c4ccccc4c(OCc4cscn4)nn23)no1
84 to 86	CC(C)(C)c1cc(SCCCCSCC(=O)O)cc(C(C)(C)C)c1O
70 to 80	O=C(NC1(C(=O)O)CCCC1)OCc1ccccc1
196	CSc1nc2cc(Cl)ccc2n1C1CCN(CCCn2c(=O)[nH]c3ccccc32)CC1

Compound	melting point [°C]
CC(C)(C)CC(NC(=O)c1ccc(Cl)cc1)NC(=N[N+](=O)[O-])Nc1cccnc1 (stereo not given)	184 to 185
Cc1ccc(C=CC2CCC(c3ccccc3)(N(C)C)CC2)cc1 (stereo not given)	130 to 145
COc1ccc2[nH]cc(CN(C)C)c2c1Cl	145 to 149
O=C(Nc1nc(C(Cl)(Cl)Cl)ns1)C(Cl)(Cl)Cl	158
